Experimental data as given in patent US10945998B2, “Inhibitors of short-chain dehydrogenase activity for treating fibrosis” (CASE WESTERN RESERVE UNIVERSITY, priority 2015, dated 2021).
Values belong to the molecule of their own block, whether it stands above or below them.

Key:
[1] = test system: mouse model of intestinal fibrosis; assay: DSS chronic colitis mouse model of intestinal fibrosis; assay type: in vivo, FVB/N mice; conditions: 5 mg/kg IP twice a day for 28 days from day 41, colons day 69, vs vehicle
Procedure: To establish a model of intestinal fibrosis due to chronic colitis, 8-week male FVB/N mice were subjected to three cycles of dextran sodium sulfate (DSS; 2% w/v) in sterile drinking water. Each cycle consisted of 7 days of DSS followed by 10 days of recovery without DSS. […] On day 69, colons were harvested from mice, longitudinally open, and embedded in agar for orientation, and fixed in formalin overnight. Slides were prepared from paraffin-embedded formalin-fixed samples according to standard procedures. The degree of fibrosis in the mouse colon in the two groups were compared by Masson's Trichrome staining. The intensity of positive trichrome staining was quantified using ImageJ software in the following manner. 10 evenly spaced images were captured at 20× from each third of the colon from each mouse. (FIGS. 7(A-D)) Significant lymphovascular compartments or extracolonic connective tissue attachments seen on slides were excluded during the image capture. RGB channels were split from the images, and the blue channel from each image was divided by the red channel. After generating an intensity histogram of all pixels in the resultant image, the area under the curve (AUC) was calculated for intensities above 1.3 (blue/red) cutoff. The sum of AUC (total trichrome intensity) was normalized by the colon length.

[2] = test system: mouse model of idiopathic pulmonary fibrosis; assay: bleomycin mouse model of idiopathic pulmonary fibrosis; assay type: in vivo, C57/BL6J mice; conditions: vs vehicle
Procedure: 8 week old female C57/BL6J mice were purchased from Jackson Labs (stock #000664). All mouse studies were approved by the institutional animal care and use committee at Case Western Reserve University.
To induce disease onset, mice were anesthetized with ketamine/xylazine and the trachea exposed by cervical […]. Bleomycin sulfate (Enzo-BML-AP302-0010) was dissolved in H2O and administered intratracheally as a single dose of 2 mg/kg in 50 μl solution per animal.
Mortality was observed daily over the duration of the study. Body weights were measured prior to instillation and twice weekly post-bleomycin instillation.
Hydroxyproline was used to measure collagen content in mouse lungs (Sigma-MAK008-1KT). Briefly, mice were sacrificed and the right lung dissected for collagen quantitation. Experiments were performed according to the manufacturer's protocol. […] The hydrolyzed samples were incubated with 4-(Dimethylamino) benzaldehyde (DMAB) for 90 min at 60° C., and the absorbance of oxidized hydroxyproline was measured at 560 nm.

[3] = test system: PGE2 production by cell lines; assay: PGE2 production by cell lines; assay type: cell-based
[4] = chemical stability in aqueous solutions; assay type: physicochemical; conditions: over broad pH range
[5] = chemical stability when incubated with hepatocyte extracts; assay type: in vitro ADME
[6] = chemical stability when incubated with hepatocyte cell lines; assay type: in vitro ADME
[7] = plasma half-life after IP injection into mice; assay type: in vivo; conditions: mouse, injected IP into mice
mice = assay: toxicity after IP injection into mice
recombinant 15-PGDH = biological target: T1, recombinant 15-PGDH (Homo sapiens, UniProt P15428); assay: inhibition of recombinant 15-PGDH; assay type: biochemical
T1 sequence (P15428 1-266): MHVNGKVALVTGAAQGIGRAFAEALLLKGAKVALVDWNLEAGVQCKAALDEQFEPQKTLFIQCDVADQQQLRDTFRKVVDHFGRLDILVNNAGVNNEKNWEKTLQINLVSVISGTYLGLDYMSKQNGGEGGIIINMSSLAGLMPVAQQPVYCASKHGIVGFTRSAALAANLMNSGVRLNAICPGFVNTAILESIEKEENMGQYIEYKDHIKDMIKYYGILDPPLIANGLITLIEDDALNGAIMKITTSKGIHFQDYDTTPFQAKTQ

[8] = chemical stability when incubated with mouse liver extracts; assay type: in vitro ADME
[9] = chemical stability when incubated with rat liver extracts; assay type: in vitro ADME
[10] = chemical stability when incubated with human liver extracts; assay type: in vitro ADME
[11] = 5.0 mg/kg IP 2× daily for 35 days after bleomycin

SMILES: CCCC[S+]([O-])c1sc2nc(-c3cccs3)cc(-c3ccccc3)c2c1N (single isomer, unassigned; (+)) [(+)SW033291]
colonic fibrosis (Masson's Trichrome staining intensity normalized by colon length) [1]: substantially reduced

SMILES: CCCC[S+]([O-])c1sc2nc(-c3cccs3)cc(-c3ccccc3)c2c1N (stereo not drawn) [SW033291, 2-(butylsulfinyl)-4-phenyl-6-(thiophen-2-yl)thieno[2,3-b]pyridin-3-amine]
survival [2, 11]: improved survival
weight change [2, 11]: enhanced maintenance of weight
collagen deposition (tissue hydroxyproline content) ([2]; lung, 5.0 mg/kg IP 2× daily after bleomycin): reduced collagen deposition

SMILES: CCCC[S+]([O-])c1sc2nc(-c3cccs3)cc(-c3ccccc3)c2c1N (stereo not drawn) [formula (IX)]
PGE2 production by cell lines [3]: increase PGE2 production
chemical stability in aqueous solutions [4]: chemically stable
chemical stability with hepatocyte extracts [5]: chemically stable
chemical stability with hepatocyte cell lines [6]: chemically stable
half-life [7]: 4.22 h
toxicity (mice; injected IP into mice at 0.3 μmole/per mouse twice daily for 21 days): no toxicity
immediate toxicity over 24 hours (mice; injected IP into mice at 0.6 μmole/per mouse): no immediate toxicity
immediate toxicity over 24 hours (mice; injected IP into mice at 1.2 μmole/per mouse): no immediate toxicity

concentration at which recombinant 15-PGDH is inhibited (recombinant 15-PGDH): 3 nM
chemical stability with liver extracts [8]: chemically stable
chemical stability with liver extracts [9]: chemically stable
chemical stability with liver extracts [10]: chemically stable
half-life [7]: 0.55 h
SMILES: CCCC[S+]([O-])c1sc2nc(-c3nccs3)cc(-c3cnc(C)n3C)c2c1N (stereo not drawn) [formula (X)]
concentration at which PGE2 production by cell lines is increased [3]: 20 nM
